In US8865750B2, “Small molecule inhibitors of RGS proteins” (The Regents of The University of Michigan, priority 2011, dated 2014):
Entries after “also recorded” stand apart in the source; their conditions may differ. Where two headings read alike, the source gives them in different places.

What was measured:
[1] = system: RGS4; experiment: FCPIA: Gαo binding to RGS4
Excerpt: (§1) FCPIA Dose Response and Reversibility Experiments:

[2] = molecular target: RGS8 (Homo sapiens (Human), UniProt P57771); experiment: FCPIA: Gαo binding to RGS8
Sequence of RGS8 (P57771 other isoform, or with tags, fused parts or gaps): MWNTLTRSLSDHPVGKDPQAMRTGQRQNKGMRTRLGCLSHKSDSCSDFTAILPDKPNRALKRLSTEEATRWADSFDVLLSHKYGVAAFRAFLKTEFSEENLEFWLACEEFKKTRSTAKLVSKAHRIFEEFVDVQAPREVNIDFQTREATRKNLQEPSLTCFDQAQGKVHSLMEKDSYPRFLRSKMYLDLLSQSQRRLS
Excerpt: as §1

[3] = molecular target: RGS16 (Homo sapiens (Human), UniProt O15492); experiment: FCPIA: Gαo binding to RGS16; details: Table 7
Sequence of RGS16 (O15492 whole entry, species assumed): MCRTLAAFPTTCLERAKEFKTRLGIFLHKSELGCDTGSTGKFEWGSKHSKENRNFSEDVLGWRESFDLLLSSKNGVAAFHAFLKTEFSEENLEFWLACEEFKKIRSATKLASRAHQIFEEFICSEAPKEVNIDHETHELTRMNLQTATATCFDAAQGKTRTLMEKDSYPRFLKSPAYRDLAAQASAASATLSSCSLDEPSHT
Method: as §1
(§2) FCPIA was performed as previously described using chemically biotinylated RGS proteins and AlexaFluor-532 labeled Gα0. (Roman et al., J Biomol Screen, 2009; Blazer, L. L., et al., Mol Pharmacol).
(§3) RGS/Gα binding studies: The binding of biotinylated RGS proteins to fluorescently labeled Gαo was measured by Flow Cytometry Protein Interaction Assay (FCPIA) method previously described (Roman et al., (2009) J Biomol Screen.; Blazer et al., (2010) Curr Protoc Cytom Chapter 13, Unit 13 11 11-15; Roman et al., (2007) Mol Pharmacol 71, 169-175) as were the measures of compound reversibility.

[4] = molecular target: RGS7 (Homo sapiens (Human), UniProt P49802); experiment: FCPIA: Gαo binding to RGS7; details: Table 7
Sequence of RGS7 (P49802 whole entry, species assumed): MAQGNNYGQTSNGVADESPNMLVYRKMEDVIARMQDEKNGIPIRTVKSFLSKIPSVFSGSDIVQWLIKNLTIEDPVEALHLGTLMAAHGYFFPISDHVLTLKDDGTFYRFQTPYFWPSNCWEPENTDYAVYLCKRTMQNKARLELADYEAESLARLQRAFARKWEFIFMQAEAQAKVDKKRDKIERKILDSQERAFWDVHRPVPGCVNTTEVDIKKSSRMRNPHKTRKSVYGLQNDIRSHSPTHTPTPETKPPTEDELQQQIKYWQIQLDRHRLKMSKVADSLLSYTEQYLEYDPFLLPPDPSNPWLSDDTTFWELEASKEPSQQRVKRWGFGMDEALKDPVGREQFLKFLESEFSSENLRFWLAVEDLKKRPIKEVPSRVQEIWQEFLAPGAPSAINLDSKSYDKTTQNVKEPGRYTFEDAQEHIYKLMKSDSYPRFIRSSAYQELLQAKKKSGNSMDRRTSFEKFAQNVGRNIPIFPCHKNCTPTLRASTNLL
Method: as §1, §2, §3

[5] = molecular target: T1, RGS4 (Homo sapiens (Human), UniProt P49798); experiment: Single turnover GTPase (GAP) assay, RGS4; assay type: biochemical
Method: (§4) Single Turnover GTPase Measurements:
(§5) Compounds were tested for the ability to inhibit the RGS4 and RGS8-stimulated increase in GTP hydrolysis by Gα0 as described previously (Roman, D. L., et al., Mol Pharmacol, 2007. 71(1): p. 169-75; Roof, R. A., et al., Chem Biol Drug Des, 2006. 67(4): p. 266-74).
Compounds were tested for the ability to inhibit the RGS4 and RGS8-stimulated increase in GTP hydrolysis by Gα0 as previously described (Roman, D. L., et al., Mol Pharmacol, 2007. 71(1): p. 169-75; Roof, R. A., et al., Chem Biol Drug Des, 2006. 67(4): p. 266-74).
(§6) Single-turnover GAP assay: Experiments were performed as previously described using purified his6-tagged Gαo (Blazer et al., Biochemistry 50, 3181-3192; Roof et al., (2008) Chem Biol Drug Des 72, 111-119).
Target sequence in this assay (P49798 52-205, species assumed): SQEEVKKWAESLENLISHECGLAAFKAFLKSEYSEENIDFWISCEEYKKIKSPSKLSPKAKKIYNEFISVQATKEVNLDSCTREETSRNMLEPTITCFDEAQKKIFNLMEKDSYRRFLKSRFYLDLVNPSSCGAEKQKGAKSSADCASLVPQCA

[6] = molecular target: Gα0 (Homo sapiens (Human), UniProt P09471); experiment: Intrinsic GTP hydrolysis by Gαo (single turnover); assay type: biochemical
Sequence of Gα0 (P09471 whole entry): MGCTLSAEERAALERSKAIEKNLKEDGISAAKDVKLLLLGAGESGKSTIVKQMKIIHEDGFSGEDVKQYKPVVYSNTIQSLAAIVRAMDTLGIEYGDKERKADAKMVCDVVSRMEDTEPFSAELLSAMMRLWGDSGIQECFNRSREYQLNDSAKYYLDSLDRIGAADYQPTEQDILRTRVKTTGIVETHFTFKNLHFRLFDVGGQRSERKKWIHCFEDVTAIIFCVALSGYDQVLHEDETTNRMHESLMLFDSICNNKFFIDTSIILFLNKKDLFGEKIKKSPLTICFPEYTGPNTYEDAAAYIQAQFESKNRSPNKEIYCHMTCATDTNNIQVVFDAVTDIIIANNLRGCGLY
Method: as §4, §5, §6

[7] = molecular target: papain (Carica papaya (Papaya), UniProt P00784); experiment: biochemical; assay type: biochemical
Sequence of papain (P00784 134-345): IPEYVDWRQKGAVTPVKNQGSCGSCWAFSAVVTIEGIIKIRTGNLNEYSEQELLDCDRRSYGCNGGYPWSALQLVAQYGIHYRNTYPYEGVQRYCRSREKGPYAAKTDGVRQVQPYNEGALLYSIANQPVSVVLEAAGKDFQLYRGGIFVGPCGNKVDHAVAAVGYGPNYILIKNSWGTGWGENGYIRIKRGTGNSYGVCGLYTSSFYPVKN
Excerpt: Papain (Sigma-Aldrich, St. Louis, Mo.) activity was monitored by the increase in fluorescence caused by the liberation of fluorescein from autoquenched fluorescein-conjugated casein (AnaSpec, San Jose, Calif.).

[8] = Solubility experiments; assay type: physicochemical; details: water; aqueous
Method: Compounds were diluted to 100 mM in DMSO and the further diluted to 500 μM in H2O, vortexed and centrifuged for 10 minutes at 13,000×g at ambient temperature.

[9] = system: HEK293 cells; experiment: Calcium mobilization induced by compound alone; assay type: cell-based;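 as to Calcium transient (% 50014): percent of response to 10 µM reference CCG-50014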
How it was run: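 HEK-293 Flp-In TREx cells stably expressing muscarinic M3 receptor, with human RGS4 induced by 1 μg/mL doxycycline for 24-48 h, loaded with Fluo-4 for 30 min at 37° C. Compound added without carbachol; fluorescence followed for 120 s, quantified as area under curve or peak intensity.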

[10] = molecular target: T1, RGS4; experiment: Carbachol Ca2+ mobilization, M3 HEK-293 cells with doxycycline-induced RGS4; assay type: cell-based
Method: (§7) Calcium Mobilization Experiments:
A stable cell line was developed based upon the HEK-293 Flp-In TREx cell line (Invitrogen, Carlsbad, Calif.) that stably express the muscarinic M3 receptor and have human RGS4 expression under doxycycline control. Cells were maintained in DMEM supplemented with 10% fetal bovine serum and Penicillin (100 units/ml)-Streptomycin (100 μg/ml) under 5% CO2 at 37° C. For experiments, cells were split into 96-well black, clear bottom, poly-D-lysine coated microtiter plates (Nunc, Cat. #152037) at a density of 20,000 cells/well in DMEM containing 10% fetal bovine serum and Penicillin (100 units/ml), Streptomycin (100 μg/ml). […] Compounds and/or carbachol were added to the wells and the fluorescence intensity was measured using a FlexStation (Molecular Devices, Sunnyvale, Calif.) plate reader. Data analysis was performed by calculating the area under the curve or maximal fluorescence intensity from a 120 second kinetic measurement.
Calcium signaling transients: A stable cell line was developed based upon the HEK-293 Flp-In TREx cell line (Invitrogen, Carlsbad, Calif.) that stably express the muscarinic M3 receptor and have human RGS4 expression under doxycycline control. […] Compounds and/or carbachol were added to the wells and the fluorescence intensity was measured using a FlexStation (Molecular Devices, Sunnyvale, Calif.) plate reader. […]
Target sequence in this assay (P49798 whole entry): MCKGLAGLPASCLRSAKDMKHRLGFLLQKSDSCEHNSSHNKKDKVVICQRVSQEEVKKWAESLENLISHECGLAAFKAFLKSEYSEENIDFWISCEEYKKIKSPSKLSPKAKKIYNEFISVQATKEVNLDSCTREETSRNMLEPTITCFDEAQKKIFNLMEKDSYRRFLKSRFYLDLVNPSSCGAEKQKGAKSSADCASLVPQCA

[11] = system: M3 muscarinic receptor; experiment: Carbachol-induced Ca2+ response, M3 cells without RGS4 dependence; assay type: cell-based; details: for effect on carbachol-induced Ca2+ response (RGS-independent): 10 μM (FIG. 20) or as stated
Method: as §7
(§8) A stable cell line was developed based upon the HEK-293 Flp-In TREx cell line (Invitrogen, Carlsbad, Calif.) that stably express the muscarinic M3 receptor and have human RGS4 expression under doxycycline control. Cells were maintained in DMEM supplemented with 10% fetal bovine serum and Penicillin (100 units/ml)-Streptomycin (100 μg/ml) under 5% CO2 at 37° C. For experiments, cells were split into 96-well black, clear bottom, poly-D-lysine coated microtiter plates (Nunc, Cat. #152037) at a density of 20,000 cells/well in DMEM containing 10% fetal bovine serum and Penicillin (100 units/ml), Streptomycin (100 μg/ml). RGS4 expression was induced by supplementing the medium with 1 μg/mL doxycycline for 24-48 hours before experimentation. Cells were loaded with Fluo-4 No Wash dye in buffer for 30 minutes at 37° C. Compounds and/or carbachol were added to the wells and the fluorescence intensity was measured using a FlexStation (Molecular Devices, Sunnyvale, Calif.) plate reader. Data analysis was performed by calculating the area under the curve or maximal fluorescence intensity from a 120 second kinetic measurement.
as §8, with “Calcium signaling transients: A” for “A”, “units/ml)-Streptomycin” for “units/ml), Streptomycin”

[12] = Heart rate and blood pressure in freely-moving rats; assay type: in vivo
Excerpt: The muscarinic agonist carbachol can induce a transient bradycardic effect by activating M2 receptors in the SAN.

**Q.** For `CCCCn1c(=O)sn(CC)c1=O` [CCG-203769, 2-ethyl-4-butyl-1,2,4-thiadiazolidine-3,5-dione], which “reversibility of RGS4 inhibition after washing” value ([1]; 100 μM CCG-50014 or 500 nM CCG-203769, beads washed) is on record?
**A.** irreversible

**Q.** And the IC50 ([1]; FCPIA, listed as 11b, read-out: IC50 against RGS4)?
**A.** 14.4 nM

**Q.** And the “RGS4 Hill Slope” value ([1]; Table 3)?
**A.** −0.71

**Q.** And the “RGS8 Hill Slope” value ([2]; Table 3)?
**A.** −0.56

**Q.** What about the IC50 ([2]; Table 6, FCPIA, read-out: RGS8 IC50) of the same compound?
**A.** 83.5 µM

**Q.** What about the IC50 ([2]; Table 7, read-out: IC50 (μM), RGS8) of the same compound?
**A.** 79 µM

**Q.** And the IC50 [3]?
**A.** 6 µM

**Q.** What about the IC50 [4] of the same compound?
**A.** > 100 µM

**Q.** What about the “inhibition of GAP activity of RGS4” value [5] of the same compound?
**A.** potently inhibits the functional effect of RGS4

**Q.** And the “basal GTPase activity of the G protein” value [6]?
**A.** without inhibiting the basal GTPase activity

**Q.** And the inhibition of papain ([7]; 30 μM)?
**A.** unable to inhibit the protease activity of papain

**Q.** And the IC50 ([7]; Table 7)?
**A.** > 100 µM

**Q.** What about the solubility [8] of the same compound?
**A.** > 5 mM

**Q.** What about the “induction of calcium transient by compound alone” value ([9]; 10 μM, HEK293 cells) of the same compound?
**A.** no ability to induce calcium mobilization

**Q.** What about the Emax at 10 µM ([9]; Homo sapiens, HEK293, read-out: Calcium transient (% 50014)) of the same compound?
**A.** 2.7%

**Q.** What about the “lowest concentration with enhanced Ca2+ signaling” value [10] of the same compound?
**A.** 1 µM

**Q.** What about the “reversal of RGS4-mediated suppression of carbachol Ca2+ response” value ([10]; 15 min pretreatment, 1 and 3 μM) of the same compound?
**A.** partially rescued; also recorded: partially reverse

**Q.** What about the “concentration above which carbachol Ca2+ transient is inhibited” value [11] of the same compound?
**A.** > 3 µM

**Q.** What about the “effect on carbachol-induced Ca2+ response (RGS-independent)” value [11] of the same compound?
**A.** without affecting M3-mediated calcium signal; also recorded: does not directly affect the carbachol stimulation

**Q.** And the “effect on carbachol-induced Ca2+ response (RGS-independent)” value ([11]; listed as 11b)?
**A.** no effect

**Q.** What about the “blood pressure, carbachol plus compound” value ([12]; 10 mg/kg IV + carbachol 0.1 mg/kg IP) of the same compound?
**A.** does not reach statistical significance

**Q.** And the “bradycardic effect of carbachol after compound” value ([12]; 10 mg/kg IV before carbachol 0.1 mg/kg IP)?
**A.** significantly potentiated

**Q.** What about the “effect upon blood pressure, compound alone” value ([12]; 10 mg/kg, IV) of the same compound?
**A.** no significant effect

**Q.** And the “effect upon heart rate, compound alone” value ([12]; 10 mg/kg, IV)?
**A.** no significant effect
